Values joined by “and” are separate entries in the source; they are usually repeats but may differ in a detail not shown here. Equal values may be shown once. Toxic doses and inconclusive results are not listed.

In this assay the test system is P388 leukemia ip, CD2F1 mice, survival T/C. Briefly: NCI In Vivo Anticancer Drug Screen. Data for tumor model P388 Leukemia (intraperitoneal) in CD2F1 (CDF1) mice. The conditions noted are these: endpoint: median survival time, higher = longer survival. A digest of the protocol: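 Mice carrying the transplanted tumor received test compound or vehicle. Survival was recorded in each group, and the value is the treated-group measurement divided by that of the vehicle-treated control group.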

The mark [1] stands for this setting: dose: 12.5 mg/kg/injection, schedule: Q01DX009 (ip), vehicle: Klucel (hydroxypropylcellulose) (HPC).
Where [2] appears, read: dose: 25.0 mg/kg/injection, schedule: Q01DX009 (ip), vehicle: Klucel (hydroxypropylcellulose) (HPC).
Setting [3] is: dose: 50.0 mg/kg/injection, schedule: Q01DX009 (ip), vehicle: Klucel (hydroxypropylcellulose) (HPC).
[4] abbreviates: dose: 100.0 mg/kg/injection, schedule: Q01DX009 (ip), vehicle: Klucel (hydroxypropylcellulose) (HPC).
Where [5] appears, read: dose: 240.0 mg/kg/injection, schedule: Q01DX005 (ip), vehicle: saline with Tween-80.
Where [6] appears, read: dose: 50.0 mg/kg/injection, schedule: Q01DX009 (ip), vehicle: saline with Tween-80.
[7] abbreviates: dose: 100.0 mg/kg/injection, schedule: Q01DX009 (ip), vehicle: saline with Tween-80.
[8] abbreviates: dose: 200.0 mg/kg/injection, schedule: Q01DX009 (ip), vehicle: saline with Tween-80.
Setting [9] is: dose: 25.0 mg/kg/injection, schedule: Q04DX002 (ip), vehicle: saline with Tween-80.
Where [10] appears, read: dose: 50.0 mg/kg/injection, schedule: Q01DX005 (ip), vehicle: saline with Tween-80.
Where [11] appears, read: dose: 100.0 mg/kg/injection, schedule: Q01DX005 (ip), vehicle: saline with Tween-80.
Where [12] appears, read: dose: 200.0 mg/kg/injection, schedule: Q01DX005 (ip), vehicle: saline with Tween-80.

As to `Cc1nnc(-n2cccc2)s1`, the T/C runs as follows: under setting [1], 105 % of control; under setting [2], 104 % of control and 95 % of control; under setting [3], 100 % of control and 106 % of control; under setting [4], 100 % of control and 111 % of control.
As for `ClC1=CC(Cl)=C2N=C(N3CCCC3)N=C3N=C(N4CCCC4)N=C1N32`, the T/C was 93 % of control (dose: 50.0 mg/kg/injection, schedule: Q01DX005 (ip), vehicle: Klucel + Tween-80); 93 % of control (dose: 100.0 mg/kg/injection, schedule: Q01DX005 (ip), vehicle: Klucel + Tween-80); 90 % of control (dose: 200.0 mg/kg/injection, schedule: Q01DX005 (ip), vehicle: Klucel + Tween-80).
For `Oc1ccc(Br)cc1C=NCCS`, the T/C is, setting by setting: (dose: 15.0 mg/kg/injection, schedule: Q01DX005 (ip), vehicle: saline with Tween-80) 97 % of control; (dose: 30.0 mg/kg/injection, schedule: Q01DX005 (ip), vehicle: saline with Tween-80) 94 % of control; under setting [5], 89 % of control.
Turning to `O=C(c1ccccc1)C(c1ccccc1)n1nc2c(c1-c1ccccc1)CCCC2` (stereo not drawn), the T/C by setting is: under setting [3], 98 % of control; under setting [4], 91 % of control; (dose: 200.0 mg/kg/injection, schedule: Q01DX009 (ip), vehicle: Klucel (hydroxypropylcellulose) (HPC)) 97 % of control.
Regarding `CC(Br)CN(CC(C)Br)c1ccc(-c2ccccc2)cc1` (stereo not drawn), the T/C was 154 % of control under setting [1]; 164 % of control under setting [2]; 176 % of control and 181 % of control under setting [3]; 184 % of control under setting [4].
As for `O=Cc1ccc(C(Cl)(Cl)Cl)nc1`, the T/C is 105 % of control under setting [6], 110 % of control under setting [7] and 115 % of control under setting [8].
Regarding `Cc1cc(N2C(=O)CCSC2=S)c([N+](=O)[O-])cc1C`, the T/C is 98 % of control (dose: 50.0 mg/kg/injection, schedule: Q01DX009 (ip), vehicle: suspension in saline); 91 % of control (dose: 100.0 mg/kg/injection, schedule: Q01DX009 (ip), vehicle: suspension in saline); 94 % of control (dose: 200.0 mg/kg/injection, schedule: Q01DX009 (ip), vehicle: suspension in saline).
As to `CC1(CCl)Nc2ccccc2C(=O)N1c1ccccc1` (stereo not drawn), the T/C under setting [6] was 99 % of control, the T/C under setting [7] was 97 % of control and the T/C under setting [8] was 88 % of control.
Regarding `C=C(C)C(=O)OC1CC2(C)OC(=CC2=O)C(C)CC2OC(=O)C(=C)C12` (stereo not drawn), the T/C (dose: 25.0 mg/kg/injection, schedule: Q01DX001 (ip), vehicle: saline with Tween-80) is 118 % of control and the T/C (dose: 50.0 mg/kg/injection, schedule: Q01DX001 (ip), vehicle: saline with Tween-80) is 116 % of control.
With `CC(=O)Oc1ccc(OC(C)=O)c2c(OC(C)=O)c(C(CC=C(C)C)OC(C)=O)cc(OC(C)=O)c12` (stereo not drawn), the T/C reads like this: (dose: 12.5 mg/kg/injection, schedule: Q04DX002 (ip), vehicle: saline with Tween-80) 108 % of control; under setting [9], 117 % of control.
As to `CS/C(=C\c1sc2ccccc2[n+]1C)SCC(=O)c1ccccc1`, the T/C is, setting by setting: under setting [9], 100 % of control; (dose: 50.0 mg/kg/injection, schedule: Q04DX002 (ip), vehicle: saline with Tween-80) 104 % of control; (dose: 100.0 mg/kg/injection, schedule: Q04DX002 (ip), vehicle: saline with Tween-80) 106 % of control.
As to `CN(C)c1ccc(/C=C2/CCC2=O)cc1`, the T/C (dose: 100.0 mg/kg/injection, schedule: Q04DX003 (ip), vehicle: Klucel (hydroxypropylcellulose) (HPC)) is 96 % of control; the T/C (dose: 200.0 mg/kg/injection, schedule: Q04DX003 (ip), vehicle: Klucel (hydroxypropylcellulose) (HPC)) is 97 % of control; the T/C (dose: 400.0 mg/kg/injection, schedule: Q04DX003 (ip), vehicle: Klucel (hydroxypropylcellulose) (HPC)) is 95 % of control.
On to `COc1cc([C@@H]2c3cc4c(cc3[C@H](OC(=O)CCCC(=O)O)[C@H]3COC(=O)[C@H]23)OCO4)cc(OC)c1OC`, for which the T/C by setting is: (dose: 3.12 mg/kg/injection, schedule: Q01DX005 (ip), vehicle: saline) 100 % of control; (dose: 6.25 mg/kg/injection, schedule: Q01DX005 (ip), vehicle: saline) 104 % of control; (dose: 12.5 mg/kg/injection, schedule: Q01DX005 (ip), vehicle: saline) 110 % of control and 122 % of control.
For `COCC(=O)OC`, the T/C was 97 % of control (dose: 25.0 mg/kg/injection, schedule: Q01DX009 (ip), vehicle: saline); 100 % of control (dose: 50.0 mg/kg/injection, schedule: Q01DX009 (ip), vehicle: saline); 98 % of control (dose: 100.0 mg/kg/injection, schedule: Q01DX009 (ip), vehicle: saline); 92 % of control (dose: 200.0 mg/kg/injection, schedule: Q01DX009 (ip), vehicle: saline).
Take `O=[N+]([O-])c1ccc(CCCl)cc1`: the T/C under setting [6] is 99 % of control, the T/C under setting [7] was 88 % of control and the T/C under setting [8] is 90 % of control.
Turning to `COc1cc2c(cc1C(CC(C)=O)c1cc(OC)c(OC)c(OC)c1)OCO2` (stereo not drawn), the T/C is 100 % of control (dose: 60.0 mg/kg/injection, schedule: Q01DX005 (ip), vehicle: saline with Tween-80); 100 % of control (dose: 120.0 mg/kg/injection, schedule: Q01DX005 (ip), vehicle: saline with Tween-80); 103 % of control under setting [5].
With `CN(C)C(=O)C1CCC1`, the T/C reads like this: (dose: 100.0 mg/kg/injection, schedule: Q04DX003 (ip), vehicle: saline with Tween-80) 95 % of control; (dose: 200.0 mg/kg/injection, schedule: Q04DX003 (ip), vehicle: saline with Tween-80) 100 % of control; (dose: 400.0 mg/kg/injection, schedule: Q04DX003 (ip), vehicle: saline with Tween-80) 100 % of control.
For the compound `O=C(O)c1cc(-c2ccncc2)nc2ccccc12`, the T/C is 99 % of control (dose: 50.0 mg/kg/injection, schedule: Q01DX005 (ip), vehicle: Klucel (hydroxypropylcellulose) (HPC)); 96 % of control (dose: 100.0 mg/kg/injection, schedule: Q01DX005 (ip), vehicle: Klucel (hydroxypropylcellulose) (HPC)); 97 % of control (dose: 200.0 mg/kg/injection, schedule: Q01DX005 (ip), vehicle: Klucel (hydroxypropylcellulose) (HPC)).
Consider `Nc1[nH]c(=O)nc2sc3ccccc3c12`, for which the T/C under setting [10] was 102 % of control, the T/C under setting [11] is 105 % of control and the T/C under setting [12] is 102 % of control.
In the case of `O=C1Nc2ccccc2/C1=N/N(c1ccccc1)c1ccccc1`, the T/C was 95 % of control under setting [10], 101 % of control under setting [11] and 99 % of control under setting [12].
In the case of `S=c1[nH]c(Cl)c(Cl)cc1Cl`, the T/C by setting is: under setting [6], 98 % of control; under setting [7], 105 % of control; under setting [8], 99 % of control.
As to `Cc1c(O)c2ccc(N(C)C)cc2[nH]c1=O`, the T/C was 101 % of control under setting [10], 95 % of control under setting [11] and 100 % of control under setting [12].
As to `CC1CC(C)(O)CC(C(O)CC2CC(=O)NC(=O)C2)C1=O` (stereo not drawn), the T/C by setting is: (dose: 77.8 micrograms/kg/injection, schedule: Q01DX009 (ip), vehicle: saline) 123 % of control; (dose: 216.0 micrograms/kg/injection, schedule: Q01DX009 (ip), vehicle: saline) 152 % of control and 162 % of control; (dose: 360.0 micrograms/kg/injection, schedule: Q01DX009 (ip), vehicle: saline) 165 % of control; (dose: 467.0 micrograms/kg/injection, schedule: Q04DX003 (ip), vehicle: saline) 120 % of control; (dose: 778.0 micrograms/kg/injection, schedule: Q04DX003 (ip), vehicle: saline) 120 % of control; (dose: 1300.0 micrograms/kg/injection, schedule: Q04DX003 (ip), vehicle: saline) 120 % of control. In addition, the T/C is, setting by setting: (dose: 2160.0 micrograms/kg/injection, schedule: Q04DX003 (ip), vehicle: saline) 124 % of control; (dose: 3600.0 micrograms/kg/injection, schedule: Q04DX003 (ip), vehicle: saline) 118 % of control.
Consider `Nc1nnc2nc(CC(=O)c3ccc(F)cc3)c(CC(=O)c3ccc(F)cc3)nn12`, for which the T/C (dose: 60.0 mg/kg/injection, schedule: Q01DX005 (ip), vehicle: saline) is 104 % of control; the T/C (dose: 120.0 mg/kg/injection, schedule: Q01DX005 (ip), vehicle: saline) was 106 % of control; the T/C (dose: 240.0 mg/kg/injection, schedule: Q01DX005 (ip), vehicle: saline) was 100 % of control.

(Values after PubChem BioAssay AID330 (DTP/NCI, 2004).)
